Patent publication EP1956033A1, “Acrylimides with initiator characteristics” (Mondi Release Liner Austria GmbH, priority 2007, dated 2008)

Legend:
[1] = Test for initiator properties: photopolymerisation of HDDA with the acrylimide added as initiator; details: approx. 6 mol-% imido groups in HDDA, 250-450 nm, 900 mW/cm^2; for DBC: double bond conversion from heat of polymerisation; for Rate: mean polymerisation rate of the mixture, means of multiple determinations; for tmax: time to exotherm maximum (maximum polymerisation rate)
Description: Dabei wurden die üblichen Polymerisationsparameter aufgezeichnet, und die Ergebnisse sind (als Mittelwerte von […]) in […] gibt die "Rate" die […]) des jeweiligen […] an. "DBC" ("double bond conversion"; in %) […] aus der Polymerisationswä[…] an polymerisierten Doppelbindungen, bezogen auf die […], und "tmax" ist die bis zum Erreichen des […]. bis zur […]) erforderliche Zeit (in s). Zusätzlich sind der Gehalt der jeweiligen Verbindung in HDDA in Gew.-% und in Mol-% sowie der Gehalt an Acrylimidogruppen in Mol-% angegeben. Tabelle 1

[2] = Test under self-initiation: irradiation and polymerisation in bulk without additional initiator; set-up: Rate: unit not given here; details: for DBC / Rate / tmax: 100 wt-% compound, in bulk, no additional initiator; for Polymerisationsraten in Substanz gegenüber Verwendung als Initiatoren für HDDA (Faktor): ratio of rate in bulk to rate of the same compound as initiator in HDDA
[3] = Preliminary tests of the inventors on di(meth)acrylated carboxamides (reactivity / initiator properties)
Description: Da sich in der Literatur keine Hinweise auf derartige Eigenschaften von Di(meth)-acrylamiden fanden, zielten Vorversuche der Erfinder auf Triacylamide ab, in denen zwei der Acylgruppen (Meth)acrylgruppen waren.

Row | Compound | DBC [1] | Rate [1] | tmax [1] | DBC [2] | Rate [2] | tmax [2] | Polymerisationsraten in Substanz gegenüber Verwendung als Initiatoren für HDDA (Faktor) [2] | Reaktivität / Initiatoreigenschaften [3]
1 | C=CC(=O)N(CC1CCCC(CN(C(=O)C=C)C(=O)C=C)C1)C(=O)C=C (stereo not drawn) [[18], N,N'-(1,3-Cyclohexylendimethylen)bisacrylimid] | 73,6% | 19,1 10^3 mol/l.s. | 167,5 s | – | – | – | – | –
2 | C=CC(=O)N(CCN(CCN(C(=O)C=C)C(=O)C=C)CCN(C(=O)C=C)C(=O)C=C)C(=O)C=C [[22], Tris(2-acrylimidoethyl)amin] | 72,4% | 17,8 10^3 mol/l.s. | 182,2 s | 73,5% | 38,1 | 16,8 s | ~2 | –
3 | C=CC(=O)N(CCCCCCN(C(=O)C=C)C(=O)C=C)C(=O)C=C [[16], N,N'-(1,6-Hexylen)bisacrylimid] | 75,7% | 20,6 10^3 mol/l.s. | 162,4 s | – | – | – | – | –
4 | C=CC(=O)N(CCCCCC)C(=O)C=C [[13], N-Hexylacrylimid] | 80,2% | 28,5 10^3 mol/l.s. | 159,9 s | 92,7% | 170,0 | 21,3 s | – | –
5 | Diacrylpropionamid | – | – | – | – | – | – | – | mäßig reaktive Monomere ohne Initiatoreigenschaften
6 | C=CC(=O)N(CCC)C(=O)C=C [[12], N-Propylacrylimid] | 82,6% | 29,8 10^3 mol/l.s. | 159,6 s | 95,2% | 196,3 | 20,4 s | – | –
7 | C=CC(=O)N(CCN(CC)CC)C(=O)C=C [[15], N-(2-Diethylaminoethyl)acrylimid] | 80,2% | 27,7 10^3 mol/l.s. | 160,8 s | 90,3% | 167,4 | 20,9 s | – | –
8 | C=CC(=O)N(CCC[Si](C)(C)O[Si](C)(C)CCCN(C(=O)C=C)C(=O)C=C)C(=O)C=C [[21], N,N'-(4,6-Disila-5-oxa-4,4,6,6-tetramethyl-1,9-nonylen)bisacrylimid] | 78,2% | 23,4 10^3 mol/l.s. | 153,0 s | 80,2% | – | 19,2 s | ~2 | –
9 | C=CC(=O)N(CC(CC)CCCC)C(=O)C=C (stereo not drawn) [[14], N-2-Ethylhexylacrylimid] | 80,9% | 28,3 10^3 mol/l.s. | 157,1 s | 89,1% | 164,8 | 21,8 s | – | –
10 | C=CC(=O)N(CCCCCCCCCCCCN(C(=O)C=C)C(=O)C=C)C(=O)C=C [[19], N,N'-(1,12-Dodecylen)bisacrylimid] | 76,8% | 20,9 10^3 mol/l.s. | 163,9 s | – | – | – | – | –
11 | C=CC(=O)N(CCC(C)(C)CC(C)CN(C(=O)C=C)C(=O)C=C)C(=O)C=C (stereo not drawn) [[17], N,N'-(2,4,4-Trimethyl-1,6-hexylen)bisacrylimid] | 75,3% | 20,2 10^3 mol/l.s. | 165,0 s | 78,9% | 42,6 | 19,5 s | ~2 | –
12 | C=CC(=O)N(CCOCCOCCN(C(=O)C=C)C(=O)C=C)C(=O)C=C [[20], N,N'-(3,6-Dioxa-1,8-octylen)bisacrylimid] | 74,8% | 21,2 10^3 mol/l.s. | 171,2 s | – | – | – | – | –
